Measured values taken from the supplement of paper PMC11208160.

Assay: recombinant barcode read abundance after kanamycin selection (control-corrected) (log10(CPM+1)); higher = more efficient recombination; sequences stand for … in AGTGCAGAGAAAATCGGCCAGTTTTCTCTGCCTGCAGTCCGCATGCCGT…AGATTTATGCAGCGGACTGCCTTTCTCCCAAAGTGATAAACCGGACAGTATCATGGACCGGTTTTCCCGGTAATCCGTATTTGCAAGGTTGGTTTCACT; site = the 11-nt target
Method in brief: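 Duplicate cultures were plated either on chloramphenicol/ampicillin LB agar, serving as control, or on chloramphenicol/ampicillin/kanamycin with 0.1 mM IPTG. These came from a pooled E. coli library co-electroporated with a donor plasmid, each member pairing a target with an IS621 bridge RNA target-binding loop. Recombination efficiency equals averaged, control-corrected counts per million of recombinant-junction barcodes. It is listed as log10(CPM+1).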
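Also: IS621 recombinase and bridge RNA in Escherichia coli cells.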

Compared with “AGTCAGCCTTGGGTTCTAACCTGTTGCCT (site AGTCAGCCTAG)”, “AGTCAGCCTTGGGTTCTAACCTGTTGCCT (site AGTGAGCCTAG)” is lower in “recombinant barcode read abundance (log10)” value: 0.749 for the first, 0.318 for the second.

“AGTCAGCCTTGGGTTCTAACCTGTTGCCT (site AGTTAGCCTAG)” and “AGTCAGTCTTGGGTTCTAACCTGTTGCCA (site AGTCAGTCTTG)” are within 0.2 log units of each other in “recombinant barcode read abundance (log10)” value: 0.133 for the first, 0.0748 for the second.

Compared with “AGTCAGTCTTGGGTTCTAACCTGTTGCCA (site AGTTAGTCTTG)”, “AGTCATACTTGGGTTCTAACCTGTTGCAT (site AGTCATACTAT)” is higher in “recombinant barcode read abundance (log10)” value: 0.121 for the first, 0.356 for the second.

Compared with “AGTCATACTTGGGTTCTAACCTGTTGCAT (site AGTCATCCTAG)”, “AGTCATACTTGGGTTCTAACCTGTTGCCA (site AGTCATACTTG)” is higher in “recombinant barcode read abundance (log10)” value: 0.0486 for the first, 0.355 for the second.

Compared with “AGTCATACTTGGGTTCTAACCTGTTGCCA (site GACGTGTCTAC)”, “AGTCCTTCTTGGGTTCTAACCTGTTGCAT (site AGTCCTTCTAT)” is higher in “recombinant barcode read abundance (log10)” value: 0.0524 for the first, 0.878 for the second.

First: AGTCCTTCTTGGGTTCTAACCTGTTGCAT (site CGTCCTTCTAG)
Second: AGTCTACCTTGGGTTCTAACCTGTTGCCT (site AGTCTACCTAG)
The “recombinant barcode read abundance (log10)” value of the first is lower: 0.0721 for the first, 1.23 for the second.

“AGTCTACCTTGGGTTCTAACCTGTTGCCT (site CGTCTACCTAG)” and “AGTCTAGCTTGGGTTCTAACCTGTTGCCG (site AGTCTAGCTAG)” are within 0.2 log units of each other in “recombinant barcode read abundance (log10)” value: 0.0985 for the first, 0.083 for the second.

First: AGTCTAGCTTGGGTTCTAACCTGTTGCCG (site AGTCTAGCTCG)
Second: AGTCTAGCTTGGGTTCTAACCTGTTGCCG (site AGTCTAGCTGG)
The “recombinant barcode read abundance (log10)” value of the first is higher: 0.67 for the first, 0.0274 for the second.

Going from “AGTCTAGCTTGGGTTCTAACCTGTTGCCG (site AGTCTAGCTTG)” to “AGTCTCCCTTGGGTTCTAACCTGTTGCCT (site AGACTCCCTAG)”, the “recombinant barcode read abundance (log10)” value falls from 0.641 to 0.372.

“AGTCTCCCTTGGGTTCTAACCTGTTGCCT (site AGCCTCCCTAG)” and “AGTCTCCCTTGGGTTCTAACCTGTTGCCT (site AGGCTCCCTAG)” are within 0.2 log units of each other in “recombinant barcode read abundance (log10)” value: 0.0404 for the first, 0.0232 for the second.

First: AGTCTCCCTTGGGTTCTAACCTGTTGCCT (site AGTCTCCCTAG)
Second: AGTCTCTCTTGGGTTCTAACCTGTTGCCG (site AGTCTCTCTCG)
The “recombinant barcode read abundance (log10)” value of the first is higher: 1.56 for the first, 0.357 for the second.

Compared with “AGTCTCTCTTGGGTTCTAACCTGTTGCCG (site AGTCTCTCTTA)”, “AGTGCGGCTTGGGTTCTAACCTGTTGCCT (site AGTGCGGCTAG)” is higher in “recombinant barcode read abundance (log10)” value: 0.0569 for the first, 0.685 for the second.

“AGTGCGGCTTGGGTTCTAACCTGTTGCCT (site CGTGCGGCTAG)” and “AGTGCGGCTTGGGTTCTAACCTGTTGCCT (site GGTGCGGCTAG)” are within 0.2 log units of each other in “recombinant barcode read abundance (log10)” value: 0.231 for the first, 0.0363 for the second.

“AGTGCGGCTTGGGTTCTAACCTGTTGCCT (site TGTGCGGCTAG)” and “AGTTAACCTTGGGTTCTAACCTGTTGCGG (site ACTTGACCTCC)” are within 0.2 log units of each other in “recombinant barcode read abundance (log10)” value: 0.143 for the first, 0.0373 for the second.

Going from “AGTTAACCTTGGGTTCTAACCTGTTGCGG (site AGTTAACCTCC)” to “AGTTACACTTGGGTTCTAACCTGTTGCCT (site AGTTACACTAG)”, the “recombinant barcode read abundance (log10)” value falls from 1.97 to 0.637.

“AGTTACACTTGGGTTCTAACCTGTTGCCT (site AGTTCCACTAG)” and “AGTTACACTTGGGTTCTAACCTGTTGCCT (site AGTTGCACTAG)” are within 0.2 log units of each other in “recombinant barcode read abundance (log10)” value: 0.0139 for the first, 0.0991 for the second.

“AGTTACACTTGGGTTCTAACCTGTTGCCT (site AGTTTCACTAG)” and “AGTTAGCCTTGGGTTCTAACCTGTTGCCT (site AGTAAGCCTAG)” are within 0.2 log units of each other in “recombinant barcode read abundance (log10)” value: 0.0317 for the first, 0.107 for the second.

“AGTTAGCCTTGGGTTCTAACCTGTTGCCT (site AGTCAGCCTAG)” and “AGTTAGCCTTGGGTTCTAACCTGTTGCCT (site AGTGAGCCTAG)” are within 0.2 log units of each other in “recombinant barcode read abundance (log10)” value: 0.161 for the first, 0.114 for the second.

First: AGTTAGCCTTGGGTTCTAACCTGTTGCCT (site AGTTAGCCTAG)
Second: AGTTAGTCTTGGGTTCTAACCTGTTGCAG (site AGTTAGTCTCT)
The “recombinant barcode read abundance (log10)” value of the first is lower: 0.361 for the first, 1.48 for the second.

“AGTTAGTCTTGGGTTCTAACCTGTTGCAG (site GTACGCACTAG)” and “AGTTCACCTTGGGTTCTAACCTGTTGCTA (site AGTTCACCTTA)” are within 0.2 log units of each other in “recombinant barcode read abundance (log10)” value: 0.0583 for the first, 0.0738 for the second.

Going from “AGTTCACCTTGGGTTCTAACCTGTTGCTA (site GAGGGCTCTCC)” to “AGTTCATCTTGGGTTCTAACCTGTTGCAT (site AGTTCATCTAT)”, the “recombinant barcode read abundance (log10)” value falls from 0.314 to 0.0989.

First: AGTTCATCTTGGGTTCTAACCTGTTGCAT (site CTAGATGCTTC)
Second: AGTTGCCCTTGGGTTCTAACCTGTTGCCT (site AATTGCCCTAG)
The “recombinant barcode read abundance (log10)” value of the first is lower: 0 for the first, 0.738 for the second.

Going from “AGTTGCCCTTGGGTTCTAACCTGTTGCCT (site ACTTGCCCTAG)” to “AGTTGCCCTTGGGTTCTAACCTGTTGCCT (site AGTTGCCCTAG)”, the “recombinant barcode read abundance (log10)” value rises from 0.068 to 0.457.

Compared with “AGTTGCCCTTGGGTTCTAACCTGTTGCCT (site ATTTGCCCTAG)”, “AGTTGGCCTTGGGTTCTAACCTGTTGCGA (site AGTTGGCCTTC)” is higher in “recombinant barcode read abundance (log10)” value: 0.0653 for the first, 0.45 for the second.

“AGTTGGCCTTGGGTTCTAACCTGTTGCGA (site CCACCTTCTAG)” and “AGTTGTCCTTGGGTTCTAACCTGTTGCCT (site AGTTGTCCTAA)” are within 0.2 log units of each other in “recombinant barcode read abundance (log10)” value: 0.123 for the first, 0.174 for the second.

“AGTTGTCCTTGGGTTCTAACCTGTTGCCT (site AGTTGTCCTAC)” and “AGTTGTCCTTGGGTTCTAACCTGTTGCCT (site AGTTGTCCTAG)” are within 0.2 log units of each other in “recombinant barcode read abundance (log10)” value: 0.0671 for the first, 0.132 for the second.

“AGTTGTCCTTGGGTTCTAACCTGTTGCCT (site AGTTGTCCTAT)” and “ATAACTACTTGGGTTCTAACCTGTTGCTT (site ATAACTACTAA)” are within 0.2 log units of each other in “recombinant barcode read abundance (log10)” value: 0.296 for the first, 0.216 for the second.

“ATAACTACTTGGGTTCTAACCTGTTGCTT (site TACCTACCTTC)” and “ATAAGCCCTTGGGTTCTAACCTGTTGCCT (site AAAAGCCCTAG)” are within 0.2 log units of each other in “recombinant barcode read abundance (log10)” value: 0.0357 for the first, 0.176 for the second.

“ATAAGCCCTTGGGTTCTAACCTGTTGCCT (site ACAAGCCCTAG)” and “ATAAGCCCTTGGGTTCTAACCTGTTGCCT (site AGAAGCCCTAG)” are within 0.2 log units of each other in “recombinant barcode read abundance (log10)” value: 0.212 for the first, 0.166 for the second.

Compared with “ATAAGCCCTTGGGTTCTAACCTGTTGCCT (site ATAAGCCCTAG)”, “ATAAGCTCTTGGGTTCTAACCTGTTGCCT (site ATAAGCTCTAG)” is higher in “recombinant barcode read abundance (log10)” value: 1.36 for the first, 2.3 for the second.

“ATAAGCTCTTGGGTTCTAACCTGTTGCCT (site CTAAGCTCTAG)” and “ATAAGCTCTTGGGTTCTAACCTGTTGCCT (site GTAAGCTCTAG)” are within 0.2 log units of each other in “recombinant barcode read abundance (log10)” value: 0.289 for the first, 0.119 for the second.

First: ATAAGCTCTTGGGTTCTAACCTGTTGCCT (site TTAAGCTCTAG)
Second: ATAAGGACTTGGGTTCTAACCTGTTGCTA (site ATAAGGACTTA)
The “recombinant barcode read abundance (log10)” value of the first is lower: 0.766 for the first, 2.01 for the second.

First: ATAAGGACTTGGGTTCTAACCTGTTGCTA (site ATACGGACTTA)
Second: ATAAGGACTTGGGTTCTAACCTGTTGCTA (site ATAGGGACTTA)
The “recombinant barcode read abundance (log10)” value of the first is lower: 0.111 for the first, 1.26 for the second.

Compared with “ATAAGGACTTGGGTTCTAACCTGTTGCTA (site ATATGGACTTA)”, “ATAAGGGCTTGGGTTCTAACCTGTTGCCT (site ATAAATGCTAG)” is lower in “recombinant barcode read abundance (log10)” value: 0.52 for the first, 0.183 for the second.

“ATAAGGGCTTGGGTTCTAACCTGTTGCCT (site ATAAGGGCTAG)” and “ATAAGTCCTTGGGTTCTAACCTGTTGCCA (site ATAAGTCCTTG)” are within 0.2 log units of each other in “recombinant barcode read abundance (log10)” value: 0.652 for the first, 0.582 for the second.

Going from “ATAAGTCCTTGGGTTCTAACCTGTTGCCA (site GTAAGTACTTG)” to “ATACGTACTTGGGTTCTAACCTGTTGCCT (site ATACGTACTAG)”, the “recombinant barcode read abundance (log10)” value rises from 0.0629 to 1.74.

“ATACGTACTTGGGTTCTAACCTGTTGCCT (site CTACGTACTAG)” and “ATACGTACTTGGGTTCTAACCTGTTGCCT (site GTACGTACTAG)” are within 0.2 log units of each other in “recombinant barcode read abundance (log10)” value: 0.0799 for the first, 0.067 for the second.

Going from “ATACGTACTTGGGTTCTAACCTGTTGCCT (site TTACGTACTAG)” to “ATACTACCTTGGGTTCTAACCTGTTGCGG (site ATACTACCTCC)”, the “recombinant barcode read abundance (log10)” value rises from 0.0363 to 1.4.

With “ATACTACCTTGGGTTCTAACCTGTTGCGG (site ATCCCACCTCC)” the “recombinant barcode read abundance (log10)” value was 0.119.
